Source: patent US7700109B2, “Biomolecule transduction motif Mph-1-BTM and the use thereof” (ForHumanTech. Co., Ltd., priority 2002, dated 2010)

Key:
Jurkat T cells = experiment: Screening of candidate PTD-β-galactosidase fusion proteins for transduction; assay type: cell-based; conditions: fusion with β-galactosidase
Source text: Based on these two hypotheses and requisites, we searched the gene bank. With the factor that the conventional PTDs have lysines and arginines abundantly, we selected about 10,000 primary candidate genes. Among them, 500 genes were chosen by applying the requisites of signal peptide, and 100 genes of the 500 genes were confirmed as to have alanine and valine. Finally, 20 genes were selected by applying the factors required for the transcription factors, and then the transduction efficiencies were tested therefor. In addition, fusion proteins of each of these candidate PTDs and β-galactosidase were expressed and purified, and the functions of these proteins were detected using Jurkat T cells.

[1] = test system: HUVEC, HeLa, 293 and Jurkat cells; experiment: Transduction of fusion protein across cell membrane, β-galactosidase staining on slides; assay type: cell-based; conditions: 0.5 μM, 30 min at 37° C., HeLa, 293, Jurkat cells
Method: HUVEC (ATCC:CRL-1730) (2×10^5), HeLa (ATCC:CCL-2) (2×10^5), and 293 (ATCC:CRL-1573) (2×10^5), which were incubated in 10% FBS (Fetal Bovine Serum) of DMEM, were respectively transferred to Lab-tek II chamber slides. Jurkat cells (ATCC:CRL-10915) (2×10^5) incubated in 10% EBS RPMI were transferred to poly-L-lysin coated slides. Each of the slides was treated with the purified 0.5 μM of Mph-1-β-galactosidase for 30 min at 37° C. in 5% CO2 incubator. And the supernatants were removed from the slides. The incubation mixtures were washed using ice-cold PBS four times and then were solidified with 2% formaldehyde solution for 10 min. After removing the solidified solutions, the mixtures were washed again using ice-cold PBS four times. Subsequently, the respective mixtures were treated with 700 μl of β-galactosidase staining solution (Roche. Colo.) for 45 min at 37° C. in 5% CO2 incubator. Following the staining, the mixtures were washed with ice-cold PBS four times after removing the supernatants. Next, the mixtures were mounted with 70% glycerol on the microscope slides.

Mph-1-BTM: amino acid sequence 858 to 868 of Mph-1, a mouse transcription factor (SEQ ID NO:1) (YARVRRRGPRR; Biomolecule transduction motif)
transduction ability (Jurkat T cells): unexpectedly significant transduction ability

β-gal: β-galactosidase reporter protein alone, without transduction peptide
transduction across the cell membranes (β-galactosidase staining) [1]: not transduced at all
